System: C. difficile M7404
Experiment: In vitro polydatin bioactivation and C. difficile antagonism by conditioned (spent) media of B. uniformis AgshD
Type: cell-based, Clostridioides difficile
Conditions: polydatin 500 μM, 1/2-diluted, C. difficile M7404 growth 12 h (FIG. 5A)
Protocol: FIGS. 5A and 5B show microbiome-mediated polyphenol aglycone liberation. […] Step 2: Spent media was filter-sterilized. Step 3: C. difficile was grown in spent media from either vehicle or polydatin (top).
Generation of Bacteroides gene deletion mutants: Clean deletion mutants were created by allelic replacement whereby Bacteroides uniformis ATCC 8492 gshD (BACUNI_00919)was deleted. A modified pKNOCK-bla-ermGb suicide vector, pKNOCK-bla-ermGb_pheS*, that was previously engineered with a counter-selection system mediated by a variant phenylalanyl-tRNA synthetase (PheSA303G), lethal in the presence of 4-chloro-phenylalanine was leveraged. To generate deletion constructs, 1 kb regions flanking the genomic region-of-interest were amplified by PCR (Platinum SuperFi PCR Master Mix), purified, and cloned into the pKNOCK-bla-ermGb_pheS* plasmid in a three-piece ligation reaction. To mobilize resulting plasmids into Bacteroides, a triparental mating strategy was implemented. Overnight cultures of Bacteroides grown in BSG were diluted 50-fold into fresh pre-reduced BSG and grown to early exponential phase (OD600 ~0.1). The recipient strain was centrifuged at 4,000 rpm for 5 minutes and resuspended in 200 μL of 1× PBS. One-day-old E. coliDH5α lambda pir donor strain and E. coliDH5α helper strain with pRK 231 were scrapped from LB agar plates into 200 μL of 1× PBS. […]

OC[C@H]1O[C@@H](Oc2cc(O)cc(/C=C/c3ccc(O)cc3)c2)[C@H](O)[C@@H](O)[C@@H]1O [polydatin]
anti-C. difficile activity of conditioned media from B. uniformis gshD mutant grown with polydatin: ablated in B. uniformis AgshD

From US20260364124A1, “ANTI-C. DIFFICILE SMALL MOLECULE METABOLITES FROM DIET AND GUT MICROBIOME” (The Children's Medical Center Corporation, priority 2023, published 2026)
